Assay results reported in patent US7459446B2, “Treatment of diabetes with copper binding compounds” (priority 1998, dated 2008).
Where two headings read alike, the source gives them in different places. Marks after values point to notes of the source that are not given here. Each block holds one molecule with its values, some of them ahead of it.

Legend:
fructosamine oxidase [1] = experiment: fructosamine oxidase inhibition assay in human sera (ferricytochrome c, g-BSA substrate); assay type: biochemical; conditions: read-out: IC50 (concentration of inhibitor causing 50% inactivation of the enzyme)
fructosamine oxidase [2] = experiment: as above; assay type: biochemical
Description: The effectiveness of the inhibitor was expressed not by an equilibrium constant but by a velocity constant (K) which determined the fraction of the enzyme inhibited in a given period of time by a certain concentration of inhibitor.

[3] = test system: streptozocin-diabetic rat (STZ rat); experiment: Second preclinical study: intraperitoneal streptozotocin diabetic rat, 6 months; assay type: in vivo, Wistar rats; design: Mean ± SEM weight gain: unit not given here; conditions: for Mean ± SEM weight gain: beginning to end of the 24 week period; for effect on weight gain (in words): compared with untreated STZ diabetic control rats, 6-month period; for % with cataract / No with cataract: gross cataract formation; for % with cataract / No with cataract / No with severe fibrosis: week 24; for No with severe fibrosis: gross myocardial fibrosis; for mortality rate: rat, in vivo
[4] = cited from earlier work; for bioavailability: oral administration
[5] = test system: streptozocin-diabetic rat (STZ rat); experiment: First preclinical study: intravenous streptozotocin diabetic rat, 8 months; assay type: in vivo, Wistar rats; conditions: for Survivors at week 32 / mean weight change amongst surviving study animals: rat, in vivo; for Glucose: week 4, mean±SD; for Glucose / HbA1c: 50 mg/L in drinking water; for HbA1c: week 32, mean±SD
[6] = beagle dogs, cited from earlier work
[7] = solutions exposed to light at room temperature, 24 hours; cited from earlier work
[8] = cited from earlier work
[9] = fresh human sera, 0-1,000 μM inhibitor, 0.05 M TES buffer pH 7.4, 37° C., 5 minutes

IC50 (fructosamine oxidase [1]; [9]): 217 µM
SMILES: NCCCC[C@H](N[C@@H](CCc1ccccc1)C(=O)O)C(=O)N1CCC[C@H]1C(=O)O [lisinopril]
K (velocity/rate constant) (fructosamine oxidase [2]; 1.0 μM inhibitor): 0.0174 min⁻¹

IC50 (fructosamine oxidase [1]; [9]): 4.25 µM
SMILES: c1cnc2c(c1)ccc1cccnc12 [o-phenathroline]
K (velocity/rate constant) (fructosamine oxidase [2]; 1.0 μM inhibitor): 0.0385 min⁻¹

IC50 (fructosamine oxidase [1]; [9]): 1.59 µM
SMILES: NNC(=O)C(=O)NN [oxalic dyhydrazide]
K (velocity/rate constant) (fructosamine oxidase [2]; 1.0 μM inhibitor): 0.0542 min⁻¹

SMILES: C[C@H](CS)C(=O)N1CCC[C@H]1C(=O)O [captopril]
HbA1c ([3]; Week 4, mean±SD): 8.5 ± 0.9
HbA1c ([3]; Week 12, mean±SD): 9.2 ± 1.1
HbA1c ([3]; Week 24, mean±SD): 9.4 ± 01.3
Mean ± SEM weight gain [3]: 60.7 ± 20.7
effect on weight gain (in words) [3]: ineffective
% with cataract [3]: 25%
No with cataract [3]: 2
No with severe fibrosis [3]: 6
mortality rate [3]: 0%
IC50 (fructosamine oxidase [1]; pH 7.4): 1.78 µM
K (velocity/rate constant) (fructosamine oxidase [2]; 1.0 μM inhibitor): 0.0259 min⁻¹
binding in vivo to albumin and other plasma proteins ([4]; in vivo): almost completely bound
bioavailability [4]: approximately 65%

SMILES: N/N=C(\N)NN [diaminoguanidine]
IC50 (fructosamine oxidase [1]; pH 7.4): 0.36 µM
K (velocity/rate constant) (fructosamine oxidase [2]): 0.1340 min⁻¹

IC50 (fructosamine oxidase [1]; [9]): 13.6 µM
SMILES: NC(CO)C(=O)NNCc1ccc(O)c(O)c1O (centres unmarked) [benserazide]
K (velocity/rate constant) (fructosamine oxidase [2]; 10.0 μM inhibitor (*)): 0.0095* min^−1

IC50 (fructosamine oxidase [1]; [9]): 1.06 µM
SMILES: CC(=O)N[C@H](C(=O)O)C(C)(C)S [acetylpenicillamine]
K (velocity/rate constant) (fructosamine oxidase [2]; 1.0 μM inhibitor): 0.0811 min⁻¹

SMILES: NNC(N)=O [semicarbazide]
IC50 (fructosamine oxidase [1]; pH 7.4): 45 µM
K (velocity/rate constant) (fructosamine oxidase [2]): 0.0276* min^−1

SMILES: O=C(O)CN(CCN(CC(=O)O)CC(=O)O)CC(=O)O [EDTA, ethylenediamine tetraacetic acid]
Survivors at week 32 [5]: 5
mean weight change amongst surviving study animals [5]: +1.2%
Glucose [5]: 39.0 ± 6.04 mmol/L
HbA1c [5]: 9.30 ± 0.63%
IC50 (fructosamine oxidase [1]; pH 7.4): 15.7 µM
K (velocity/rate constant) (fructosamine oxidase [2]; 10.0 μM inhibitor (*)): 0.0755* min^−1
bioavailability [4]: less than 5%

SMILES: CC(=O)N[C@@H](CS)C(=O)O [acetylcysteine]
Survivors at week 32 [5]: 7
mean weight change amongst surviving study animals [5]: −8.1%
Glucose [5]: 37.8 ± 5.2 mmol/L
HbA1c [5]: 9.47 ± 1.23%
IC50 (fructosamine oxidase [1]; pH 7.4): 0.83 µM
K (velocity/rate constant) (fructosamine oxidase [2]; 1.0 μM inhibitor): 0.1677 min⁻¹

IC50 (fructosamine oxidase [1]; [9]): 231 µM
SMILES: N=C(N)NN [aminoguanidine]
K (velocity/rate constant) (fructosamine oxidase [2]; 10.0 μM inhibitor (*)): 0.0067* min^−1

IC50 (fructosamine oxidase [1]; [9]): 2.29 µM
SMILES: N[C@@H](Cc1c[nH]cn1)C(=O)O [histidine]
K (velocity/rate constant) (fructosamine oxidase [2]; 1.0 μM inhibitor): 0.0554 min⁻¹

SMILES: NNc1ccccc1 [phenylhydrazine]
IC50 (fructosamine oxidase [1]; pH 7.4): 0.81 µM
K (velocity/rate constant) (fructosamine oxidase [2]): 0.1160 min⁻¹

SMILES: C[C@@](Cc1ccc(O)c(O)c1)(NN)C(=O)O [carbidopa]
absolute bioavailability ([6]; oral): 88%
biological half-life [6]: 5 hours
oral absorption [6]: almost complete
oxidative degradation [7]: 50%
HbA1c ([3]; Week 4, mean±SD): 9.0 ± 1.0
HbA1c ([3]; Week 12, mean±SD): 9.6 ± 0.7
HbA1c ([3]; Week 24, mean±SD): 9.9 ± 1.1
Mean ± SEM weight gain [3]: 33.7 ± 20.4
effect on weight gain (in words) [3]: ineffective
% with cataract [3]: 25%
No with cataract [3]: 2
No with severe fibrosis [3]: 2
mortality rate [3]: 0%
IC50 (fructosamine oxidase [1]; pH 7.4): 0.5 µM
K (velocity/rate constant) (fructosamine oxidase [2]; 1.0 μM inhibitor): 0.1496 min⁻¹

SMILES: NNc1nncc2ccccc12 [hydralazine]
Survivors at week 32 [5]: 6
mean weight change amongst surviving study animals [5]: −11.0%
Glucose [5]: 35.7 ± 9.5 mmol/L
HbA1c [5]: 8.65 ± 1.18%
bioavailability ([8]; man, oral administration): 26-55%
drug excreted in the urine unchanged ([8]; over 24 hours after oral administration): 2.0-3.6%

IC50 (fructosamine oxidase [1]; [9]): 3.95 µM
SMILES: CCOC(=O)[C@H](CCc1ccccc1)N[C@@H](C)C(=O)N1CCC[C@H]1C(=O)O [enalapril]
K (velocity/rate constant) (fructosamine oxidase [2]; 1.0 μM inhibitor): 0.0326 min⁻¹

SMILES: CC(=O)N(O)CCCCCNC(=O)CCC(=O)N(O)CCCCCNC(=O)CCC(=O)N(O)CCCCCN [desferrioxamine]
IC50 (fructosamine oxidase [1]; pH 7.4): 40.6 µM
K (velocity/rate constant) (fructosamine oxidase [2]; 10.0 μM inhibitor (*)): 0.0109* min^−1
